This is an account of results in patent US10905783B2, “Glucosamine and derivatives thereof in imaging” (priority 2015, dated 2021).

For data set [1] the following is noted: cited from earlier work.
For the next data set, the system named is 4T1 tumor. Description: In vivo CEST MRI of 4T1 breast tumors in mice. Also on record: species or system mouse. As for the experimental part:
4T1 mouse mammary tumor cell lines were obtained from ATCC. Cells were cultured in high glucose DMEM supplemented 5% FBS, 5% NCS, NEAA and antibiotics (100 units/ml penicillin and 100 μg/ml streptomycin) at 37° C. in a humidified atmosphere containing 5% CO2.
BALB/C female mice were purchased and kept in the breeding facility of Life Science School, Tel Aviv University. To induce orthotropic xenograph tumors in the mice. 4T1 cells were injected into the lower left mammary gland of 8-week-old (17-22 gram) animals (10^6 cells in 100 μL saline). The tumors were allowed to grow for 10-14 days, reaching an average tumor volume of 5 mm^3. All experiments with animal models were carried out in compliance with the principles of the National Research Council (NRC) and were approved by the institutional animal care and use committee (IACUC) (#M-15-057).
A Bruker 7 Tesla (T) Biospec scanner with 30 cm bore size was used to scan implanted xenograph mammary tumors of mice before and after administration (i.v., i.p. or p.o.) of glucosamine or its derivatives (the glucose analogues were dissolved in saline, pH 7.4). 4T1 or MCF7 tumor-bearing mice, with an average tumor volume of 2-7 mm^3, were fasted overnight with water access, anesthetized with isoflurane (1-2%) and scanned (without surface coil). Their temperature was maintained at 37° C.
At first, T2 RARE anatomical images (RARE factor-8, TR-3000 ms, TE-11.7 ms) were acquired to identify the slice selection with maximum tumor size. The CEST images were generated as follows: a series of T2 RARE images (RARE factor-1, TR-3000 ms, TE-11.7 ms) were collected from a single 1 mm coronal slice of the abdominal area (acquisition matrix before zero filling 128×64, field of view of 40×40 mm^2) after a 2 s presaturation pulse of B1=2.5 μT (106 Hz) at the hydroxyl proton frequency offset of ±1.2 ppm from the water signal. The CEST images were acquired before and after glucosamine or its derivatives administration in order to identify the baseline. The acquisition continued for more than an hour after treatment.
The mean intensities in the selected region of interest (ROI) of the tumor were used for the % CEST plot.

Data set [2] concerns TSA and B16 cancer models. The conditions noted are these: cited from earlier work.

In the case of `O=CC[C@@H](O)[C@H](O)[C@H](O)CO` [2-DG, 2-deoxy-D-glucose], in data set [1] (rats), the toxic dose was 3000 mg/kg.

Turning to `O=C[C@H](O)[C@@H](O)[C@H](O)[C@H](O)CO` [D-glucose], in the data set with 4T1 tumor (D-glucose 1000 mg/kg per os, same animal as glucosamine), the “time after administration at which the CEST signal decreased dramatically” value fell in the range of 30 to 40 min. Also, in the data set on 4T1 tumor (PO, 4T1 model), the “duration of the CEST signal” value is “less than an hour”. In the data set with 4T1 tumor (oral doses of less than 1 g/kg), the CEST signal result is given as “no significant CEST signal”. In addition, the “CEST signal 60 minutes after administering” value in the data set on 4T1 tumor (same animal, glucosamine at half the dosage of D-glucose) is reported as “no CEST signal was observed”.

Consider `O=C[C@H](F)[C@@H](O)[C@H](O)[C@H](O)CO` [FDG, 2-fluoro-deoxy-D-glucose], for which the toxicity result in data set [1] (high concentrations) is “toxic at high concentrations”.

`CC(=O)N[C@H]1C(O)O[C@H](CO)[C@@H](O)[C@@H]1O` (stereo partly drawn) [N-Acetyl-D-glucosamine]: in data set [2], the CEST contrast entry is given as “increase CEST contrast”.
